The experiment addresses T1, IDH R132C (Homo sapiens, UniProt O75874, R132C).
T1 construct: expressed in transfected cells; host or cells: U87 cells
Description: Detection of 2-HG in supernatant of U87-IDH R132C cells. The class given is cell-based. Conditions: 72 h, LC-MS-MS, vs control; for Inhibition rate of compounds on 2-HG in the supernatant of U87-IDH R132C cells, 1 nM / inhibition at 0.001 µM: 1 nM compound; for Inhibition rate of compounds on 2-HG in the supernatant of U87-IDH R132C cells, 10 nM / inhibition at 0.01 µM: 10 nM compound; for Inhibition rate of compounds on 2-HG in the supernatant of U87-IDH R132C cells, 100 nM / inhibition at 0.1 µM: 100 nM compound; for inhibition at 0.001 µM: read-out: Inhibition rate of compounds on 2-HG in the supernatant of U87-IDH R132C cells, 1 nM; for inhibition at 0.01 µM: read-out: Inhibition rate of compounds on 2-HG in the supernatant of U87-IDH R132C cells, 10 nM; for inhibition at 0.1 µM: read-out: Inhibition rate of compounds on 2-HG in the supernatant of U87-IDH R132C cells, 100 nM. The method, then:
U87 cells overexpressing the IDH R132C mutation were seeded in a 48-well plate at 50,000 cells/well. After the cells were incubated overnight for adhesion, the supernatant was removed. The cell culture media containing serially diluted compounds were added, and the cells were incubated for 72 h. After 72 h, the cultures were collected and diluted 10-fold with water, and acetonitrile was added to extract the metabolites. The 2-HG content in the cultures was analyzed by LC-MS-MS, and the percentage inhibition of compounds on 2-HG in the supernatant was calculated as compared with the control.

These results are taken from patent US12559505B2, “IDH mutant inhibitor and use thereof” (WIGEN BIOMEDICINE TECHNOLOGY (SHANGHAI) CO., LTD., priority 2020, dated 2026).

A value given as a limit tells only on which side of the number the result lay.

T1 sequence (O75874 whole entry R132C): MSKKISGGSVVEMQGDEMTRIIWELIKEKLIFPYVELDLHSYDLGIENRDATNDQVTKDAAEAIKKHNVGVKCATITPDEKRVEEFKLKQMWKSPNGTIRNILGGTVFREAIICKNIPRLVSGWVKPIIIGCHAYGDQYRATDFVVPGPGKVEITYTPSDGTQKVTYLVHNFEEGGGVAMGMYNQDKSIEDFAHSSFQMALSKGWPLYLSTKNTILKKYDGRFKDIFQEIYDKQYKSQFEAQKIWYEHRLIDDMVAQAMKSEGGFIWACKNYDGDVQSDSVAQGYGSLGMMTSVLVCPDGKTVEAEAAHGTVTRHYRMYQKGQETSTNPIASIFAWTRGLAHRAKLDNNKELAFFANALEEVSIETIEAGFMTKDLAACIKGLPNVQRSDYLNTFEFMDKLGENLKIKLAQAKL

Take `C=CC(=O)N1CC2(CC([C@@H](CC3CCC3)c3ccc([C@H](C)Nc4ncc5c(n4)N(CC)C(=O)OC5)cc3)C2)C1` [Compound 1-1]: the “Inhibition rate of compounds on 2-HG in the supernatant of U87-IDH R132C cells, 1 nM” value is “C (C represents an inhibition rate greater than 30% but less than or equal to 60%)”; the “Inhibition rate of compounds on 2-HG in the supernatant of U87-IDH R132C cells, 10 nM” value was “A (A represents an inhibition rate greater than 90%)”; the “Inhibition rate of compounds on 2-HG in the supernatant of U87-IDH R132C cells, 100 nM” value is reported as “A (A represents an inhibition rate greater than 90%)”.

As to `C=CC(=O)NC1CCN(C(CC2CC2)c2ccc([C@H](C)Nc3ncc4c(n3)N(CC)C(=O)OC4)cc2)CC1` (stereo partly drawn) [Compound 11], the inhibition at 0.001 µM was in the range of 30 to 60%, the inhibition at 0.01 µM was above 90% and the inhibition at 0.1 µM was above 90%.

As to `C=CC(=O)NC1CN(C(CC2CC2)c2ccc([C@H](C)Nc3ncc4c(n3)N(CC)C(=O)OC4)cc2)C1` (stereo partly drawn) [Compound 14], the inhibition at 0.001 µM lay within 30 to 60%, the inhibition at 0.01 µM is above 90% and the inhibition at 0.1 µM was above 90%.

As for `C=CC(=O)N(C)C1CCN(C(CC2CC2)c2ccc([C@H](C)Nc3ncc4c(n3)N(CC)C(=O)OC4)cc2)CC1` (stereo partly drawn) [Compound 16], the inhibition at 0.001 µM was in the range of 30 to 60%, the inhibition at 0.01 µM was in the range of 60 to 90% and the inhibition at 0.1 µM was above 90%.

As to `C=CC(=O)N(C)C1CN(C(CC2CC2)c2ccc([C@H](C)Nc3ncc4c(n3)N(CC)C(=O)OC4)cc2)C1` (stereo partly drawn) [Compound 19], the inhibition at 0.001 µM fell in the range of 30 to 60%, the inhibition at 0.01 µM is above 90% and the inhibition at 0.1 µM is above 90%.

For `C=CC(=O)NC1CCN(C(CC2CC2)c2ccc([C@H](C)Nc3ncc4c(n3)N(C(C)C)C(=O)OC4)cc2)CC1` (stereo partly drawn) [Compound 22], the inhibition at 0.001 µM was below 30%, the inhibition at 0.01 µM fell in the range of 60 to 90% and the inhibition at 0.1 µM was above 90%.

In the case of `C=CC(=O)NC1CN(C(CC2CC2)c2ccc([C@H](C)Nc3ncc4c(n3)N(C(C)C)C(=O)OC4)cc2)C1` (stereo partly drawn) [Compound 23], the inhibition at 0.001 µM was in the range of 30 to 60%, the inhibition at 0.01 µM lay in the range of 60 to 90% and the inhibition at 0.1 µM was above 90%.

Take `C=CC(=O)N(C)C1CCN(C(CC2CC2)c2ccc([C@H](C)Nc3ncc4c(n3)N(C(C)C)C(=O)OC4)cc2)CC1` (stereo partly drawn) [Compound 24]: the inhibition at 0.001 µM fell in the range of 30 to 60%, the inhibition at 0.01 µM is above 90% and the inhibition at 0.1 µM was above 90%.

As to `C=CC(=O)N(C)C1CN(C(CC2CC2)c2ccc([C@H](C)Nc3ncc4c(n3)N(C(C)C)C(=O)OC4)cc2)C1` (stereo partly drawn) [Compound 25], the inhibition at 0.001 µM lay in the range of 30 to 60%, the inhibition at 0.01 µM is above 90% and the inhibition at 0.1 µM is above 90%.

Take `C=CC(=O)N1CC2(C1)CN(C(CC1CC1)c1ccc(C3(Nc4ncc5c(n4)N(CC)C(=O)OC5)CC3)cc1)C2` (stereo not drawn) [Compound 26]: the inhibition at 0.001 µM was in the range of 30 to 60%, the inhibition at 0.01 µM fell in the range of 60 to 90% and the inhibition at 0.1 µM was above 90%.

For the molecule `C=CC(=O)NC1CCN(C(CC2CC2)c2ccc(C3(Nc4ncc5c(n4)N(CC)C(=O)OC5)CC3)cc2)CC1` (stereo not drawn) [Compound 27], the inhibition at 0.001 µM was in the range of 30 to 60%, the inhibition at 0.01 µM is 60 to 90% and the inhibition at 0.1 µM was above 90%.

`C=CC(=O)NC1CN(C(CC2CC2)c2ccc(C3(Nc4ncc5c(n4)N(CC)C(=O)OC5)CC3)cc2)C1` (stereo not drawn) [Compound 28]: the inhibition at 0.001 µM was below 30%, the inhibition at 0.01 µM lay in the range of 60 to 90% and the inhibition at 0.1 µM was above 90%.

`C=CC(=O)N(C)C1CCN(C(CC2CC2)c2ccc(C3(Nc4ncc5c(n4)N(CC)C(=O)OC5)CC3)cc2)CC1` (stereo not drawn) [Compound 29]: the inhibition at 0.001 µM was below 30%, the inhibition at 0.01 µM lay in the range of 60 to 90% and the inhibition at 0.1 µM is above 90%.

`C=CC(=O)N(C)C1CN(C(CC2CC2)c2ccc(C3(Nc4ncc5c(n4)N(CC)C(=O)OC5)CC3)cc2)C1` (stereo not drawn) [Compound 30]: the inhibition at 0.001 µM lay in the range of 30 to 60%, the inhibition at 0.01 µM was 60 to 90% and the inhibition at 0.1 µM is above 90%.

As for `C=CC(=O)N1CC2(C1)CN(C(CC1CC1)c1ccc(C3(Nc4ncc5c(n4)N(C(C)C)C(=O)OC5)CC3)cc1)C2` (stereo not drawn) [Compound 31], the inhibition at 0.001 µM was below 30%, the inhibition at 0.01 µM was in the range of 60 to 90% and the inhibition at 0.1 µM was above 90%.

As for `C=CC(=O)NC1CCN(C(CC2CC2)c2ccc(C3(Nc4ncc5c(n4)N(C(C)C)C(=O)OC5)CC3)cc2)CC1` (stereo not drawn) [Compound 32], the inhibition at 0.001 µM lay in the range of 30 to 60%, the inhibition at 0.01 µM lay in the range of 30 to 60% and the inhibition at 0.1 µM is above 90%.

For the molecule `C=CC(=O)N1CC2(C1)CN([C@@H](CC)c1ccc([C@H](C)Nc3ncc4c(n3)N(CC)C(=O)OC4)cc1)C2` [Compound 36-1], the inhibition at 0.001 µM lay within 60 to 90%, the inhibition at 0.01 µM was above 90% and the inhibition at 0.1 µM is above 90%.

For the molecule `C=CC(=O)N1CC2(CC([C@H](CC)c3ccc(CNc4ncc5c(n4)N(CC)C(=O)OC5)cc3)C2)C1` [Compound 36-2], the “Inhibition rate of compounds on 2-HG in the supernatant of U87-IDH R132C cells, 1 nM” value is recorded as “B (B represents an inhibition rate greater than 60% but less than or equal to 90%)”; the “Inhibition rate of compounds on 2-HG in the supernatant of U87-IDH R132C cells, 10 nM” value is “B (B represents an inhibition rate greater than 60% but less than or equal to 90%)”; the “Inhibition rate of compounds on 2-HG in the supernatant of U87-IDH R132C cells, 100 nM” value was “A (A represents an inhibition rate greater than 90%)”.

As to `C=CC(=O)N1CC2(C1)CN(C(CC)c1ccc([C@H](C)Nc3ncc4c(n3)N(CC)C(=O)OC4)cc1)C2` (stereo partly drawn) [Compound 36], the inhibition at 0.001 µM lay within 60 to 90%, the inhibition at 0.01 µM is above 90% and the inhibition at 0.1 µM is above 90%.

On to `C=CC(=O)N1CC2(C1)CN(C(CC(C)C)c1ccc([C@H](C)Nc3ncc4c(n3)N(CC)C(=O)OC4)cc1)C2` (stereo partly drawn) [Compound 41], for which the inhibition at 0.001 µM was 30 to 60%, the inhibition at 0.01 µM is above 90% and the inhibition at 0.1 µM was above 90%.

Take `C=CC(=O)N1CC2(C1)CN(C(CC)c1ccc([C@H](C)Nc3ncc4c(n3)N(C(C)C)C(=O)OC4)cc1)C2` (stereo partly drawn) [Compound 46]: the inhibition at 0.001 µM lay within 60 to 90%, the inhibition at 0.01 µM is above 90% and the inhibition at 0.1 µM is above 90%.

For `C=CC(=O)N1CC2(C1)CN(C(CC(C)C)c1ccc([C@H](C)Nc3ncc4c(n3)N(C(C)C)C(=O)OC4)cc1)C2` (stereo partly drawn) [Compound 47], the inhibition at 0.001 µM fell in the range of 60 to 90%, the inhibition at 0.01 µM is above 90% and the inhibition at 0.1 µM is above 90%.

On to `C=CC(=O)N1CC2(C1)CN(C(CC1CC1)c1ccc([C@H](C)Nc3ncc4c(n3)N(CCC)C(=O)OC4)cc1)C2` (stereo partly drawn) [Compound 53], for which the inhibition at 0.001 µM lay within 30 to 60%, the inhibition at 0.01 µM lay in the range of 60 to 90% and the inhibition at 0.1 µM is above 90%.

Consider `C=CC(=O)N1CC2(C1)CN(C(CC1CC1)c1ccc([C@H](C)Nc3ncc4c(n3)N(CC(C)C)C(=O)OC4)cc1)C2` (stereo partly drawn) [Compound 54], for which the inhibition at 0.001 µM was 60 to 90%, the inhibition at 0.01 µM was 60 to 90% and the inhibition at 0.1 µM was above 90%.

As for `C=CC(=O)N1CC2(C1)CN(C(CC(C)(C)C)c1ccc([C@H](C)Nc3ncc4c(n3)N(CC)C(=O)OC4)cc1)C2` (stereo partly drawn) [Compound 59], the inhibition at 0.001 µM lay in the range of 30 to 60%, the inhibition at 0.01 µM was 60 to 90% and the inhibition at 0.1 µM was above 90%.

The inhibition is the relative decrease from the control value, in per cent.
